Data taken from US20230192617A1, “AZABICYCLIC(THIO)AMIDES AS FUNGICIDAL COMPOUNDS” (Bayer CropScience Aktiengesellschaft, priority 2020, published 2023).

How the values were obtained:
Sphaerotheca fuliginea = experiment: In vivo preventive test on Sphaerotheca fuliginea (powdery mildew on cucurbits); conditions: Podosphaera fuliginea, 192 h; 500 ppm of active ingredient; preventive spray on gherkin; evaluated 8 days after inoculation; read-out: efficacy
Experimental: B-4. in vivo preventive test on Sphaerotheca fuliginea (powdery mildew on cucurbits) [table] The active ingredients were made soluble and homogenized in a mixture of Dimethyl sulfoxide/Acetone/Tween® 80 and then diluted in water to the desired concentration. The young plants of gherkin were treated by spraying the active ingredient prepared as described above. Control plants were treated only with an aqueous solution of Acetone/Dimethyl sulfoxide/Tween® 80. After 24 hours, the plants were contaminated by spraying the leaves with an aqueous suspension of Sphaerotheca fuliginea spores. The contaminated gherkin plants were incubated for 8 days at 20° C. and at 70-80% relative humidity.

Alternaria alternata = Alternaria alternata in vitro cell test; type: cell-based; conditions: 120 h, 20 ppm of active ingredient, liquid culture, 5 days incubation, spectrometric measurement of mycelium growth, read-out: efficacy (inhibition of fungal growth)
How it was run: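 Spectrometric readout of mycelial growth after 5-day incubation gauged compound effects on spore germination and growth of A. alternata in liquid medium. Compounds were delivered in DMSO at ≤1% final. Absorbance was compared with untreated controls to give inhibition.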

[1] = Measurement of Log P values by HPLC on reversed phase columns (EEC directive 79/831 Annex V.A8); type: physicochemical; conditions: reversed phase HPLC column
How it was run: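 Log P derived from retention on reversed-phase columns (EEC directive 79/831 Annex V.A8), LC-UV, acetonitrile gradient 10% to 95% against water containing 0.1% formic acid, 0.001 M ammonium acetate, or 0.1% phosphoric acid; several values per method separated by "+".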

Pyrenophora teres = experiment: B-10. Pyrenophora teres in vitro cell test; type: cell-based; conditions: 144 h, 20 ppm of active ingredient, 6 days incubation, liquid culture, absorbance, read-out: efficacy (inhibition of fungal growth)
How it was run: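 Liquid-culture assay on a P. teres spore suspension with compounds added to the medium from DMSO solutions, final DMSO ≤1%. Mycelium growth read spectrometrically after 6 days. Inhibition calculated from absorbance against untreated control wells.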

Alternaria brassicae = experiment: In vivo preventive test on Alternaria brassicae (leaf spot on radish or cabbage); conditions: 500 ppm of active ingredient, preventive spray on radish or cabbage, evaluated 3 to 4 days after inoculation, read-out: efficacy
How it was run: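 Protective spray on young radish or cabbage: actives in water diluted from DMSO/acetone/Tween 80, with solvent-only controls. Leaves were challenged after 24 h with a spore suspension, and plants were held at 100% RH, 20 °C for 3 to 4 days.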

Botrytis cinerea [2] = experiment: In vivo preventive test on Botrytis cinerea (grey mould); conditions: 500 ppm of active ingredient, preventive spray on gherkin or cabbage, evaluated 4 to 5 days after inoculation, read-out: efficacy
How it was run: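 Preventive spray on cabbage or gherkin seedlings, with compound formulated in DMSO/acetone/Tween 80 and water-diluted, preceded spore inoculation by 24 hours. Cabbage was held 4 to 5 days at 20° C., 100% relative humidity; gherkin 4 to 5 days at 17° C., 90% relative humidity.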

[3] = tested on: Colletotrichum lindemuthianum; experiment: B-8. Colletotrichum lindemuthianum in vitro cell test; type: cell-based; conditions: 144 h, 20 ppm of active ingredient, 6 days incubation, liquid culture, absorbance, read-out: efficacy (inhibition of fungal growth)
How it was run: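 Liquid-culture germination/growth test: compounds in ≤1% final DMSO were added to spore-containing medium. Fungal growth was quantified spectrophotometrically after 6 days of incubation and expressed as inhibition versus untreated controls.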

Botrytis cinerea [4] = experiment: B-11. Botrytis cinerea in vitro cell test; type: cell-based; conditions: 144 h, 20 ppm of active ingredient, 6 days incubation, liquid culture, absorbance, read-out: efficacy (inhibition of fungal growth)
How it was run: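 B. cinerea spores were grown in liquid culture with compound (DMSO ≤1% final). Mycelium growth was measured spectrometrically after 6 days, with inhibition taken as absorbance relative to untreated control wells.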

[5] = tested on: Colletotrichum lindemuthianum; experiment: In vivo preventive test on Colletotrichum lindemuthianum (leaf spot on bean); conditions: 168 h, 500 ppm of active ingredient, preventive spray on bean, evaluated 7 days after inoculation, read-out: efficacy
Experimental: B-5. In Vivo Preventive Test on Colletotrichum lindemuthianum (Leaf Spot on Bean) [table] The active ingredients were made soluble and homogenized in a mixture of Dimethyl sulfoxide/Acetone/Tween® 80 and then diluted in water to the desired concentration. The young plants of bean were treated by spraying the active ingredient prepared as described above. Control plants were treated only with an aqueous solution of Acetone/Dimethyl sulfoxide/Tween® 80. After 24 hours, the plants were contaminated by spraying the leaves with an aqueous suspension of Colletotrichum lindemuthianum spores. The contaminated bean plants were incubated for 24 hours at 20° C. and at 100% relative humidity and then for 6 days at 20° C. and at 90% relative humidity.

[6] = method [a]: LC-UV, acidic range, 0.1% formic acid in water and acetonitrile as eluent

Cc1ccc(C(F)(F)CNC(=O)c2c(Oc3cccc(C(F)(F)F)c3)c(C)nc3ccccc23)c(C)c1 [I-185]
pest or weed control at 500 ppm (Sphaerotheca fuliginea): 90 to 100%
inhibition at 20 ppm (Alternaria alternata): 80 to 89%
chromatographic logP [1, 6]: 4.59
inhibition at 20 ppm (Pyrenophora teres): 90 to 100%
pest or weed control at 500 ppm (Alternaria brassicae): 70 to 79%

Cc1cc(Br)ccc1[C@@H](F)CNC(=O)c1c(Oc2cccc(C(F)(F)F)c2)cnc2ccccc12 (racemic) [I-063]
pest or weed control at 500 ppm (Sphaerotheca fuliginea): 90 to 100%
inhibition at 20 ppm (Alternaria alternata): 90 to 100%
pest or weed control at 500 ppm (Botrytis cinerea [2]): 90 to 100%
chromatographic logP [1, 6]: 4.59
inhibition at 20 ppm [3]: 90 to 100%
pest or weed control at 500 ppm (Alternaria brassicae): 90 to 100%
inhibition at 20 ppm (Botrytis cinerea [4]): 90 to 100%

O=C(NCC(F)(F)c1ccc(Br)cc1Cl)c1c(Oc2cccc(C(F)(F)F)c2)nnc2ccccc12 [I-021]
pest or weed control at 500 ppm (Sphaerotheca fuliginea): 90 to 100%
inhibition at 20 ppm (Alternaria alternata): 90 to 100%
pest or weed control at 500 ppm (Botrytis cinerea [2]): 90 to 100%
chromatographic logP [1, 6]: 4.58
inhibition at 20 ppm [3]: 90 to 100%
pest or weed control at 500 ppm (Alternaria brassicae): 90 to 100%

Cc1ccc(C(F)(F)CNC(=O)c2c(Oc3cccc(C(F)(F)F)c3)nnc3ccccc23)c(C)c1 [I-008]
pest or weed control at 500 ppm (Sphaerotheca fuliginea): 90 to 100%
inhibition at 20 ppm (Alternaria alternata): 90 to 100%
pest or weed control at 500 ppm (Botrytis cinerea [2]): 90 to 100%
chromatographic logP [1, 6]: 4.27
chromatographic logP ([1]; method [b]: LC-UV, neutral range, 0.001 molar ammonium acetate solution in water and acetonitrile as eluent): 4.22
inhibition at 20 ppm [3]: 80 to 89%
pest or weed control at 500 ppm (Alternaria brassicae): 80 to 89%

Cc1ccc(CCNC(=O)c2c(Oc3cccc(C(F)(F)F)c3)nnc3ccc(C)cc23)c(C)c1 [I-003]
pest or weed control at 500 ppm (Sphaerotheca fuliginea): 90 to 100%
inhibition at 20 ppm (Alternaria alternata): 90 to 100%
pest or weed control at 500 ppm (Botrytis cinerea [2]): 90 to 100%
chromatographic logP [1, 6]: 4.47
inhibition at 20 ppm [3]: 90 to 100%
pest or weed control at 500 ppm (Alternaria brassicae): 90 to 100%

Cc1ccc(C(F)(F)CNC(=O)c2c(Oc3cccc(Br)c3F)cnc3ccccc23)c(C)c1 [I-225]
pest or weed control at 500 ppm (Sphaerotheca fuliginea): 90 to 100%
inhibition at 20 ppm (Alternaria alternata): 90 to 100%
pest or weed control at 500 ppm (Botrytis cinerea [2]): 90 to 100%
chromatographic logP [1, 6]: 4.43
inhibition at 20 ppm [3]: 90 to 100%
inhibition at 20 ppm (Pyrenophora teres): 90 to 100%
pest or weed control at 500 ppm (Alternaria brassicae): 70 to 79%
inhibition at 20 ppm (Botrytis cinerea [4]): 90 to 100%

Cc1ccc(C(F)(F)CNC(=O)c2c(Oc3cccc(C(F)(F)F)c3)nnc3cc(F)ccc23)cc1C [I-175]
pest or weed control at 500 ppm [5]: 80 to 89%
inhibition at 20 ppm (Alternaria alternata): 90 to 100%
chromatographic logP [1, 6]: 4.62
inhibition at 20 ppm [3]: 90 to 100%
inhibition at 20 ppm (Pyrenophora teres): 90 to 100%
pest or weed control at 500 ppm (Alternaria brassicae): 90 to 100%
inhibition at 20 ppm (Botrytis cinerea [4]): 90 to 100%

Cc1ccc(CCNC(=O)c2c(Oc3cccc(C(F)(F)F)c3)nnc3ccc(F)cc23)c(C)c1 [I-006]
pest or weed control at 500 ppm (Sphaerotheca fuliginea): 90 to 100%
inhibition at 20 ppm (Alternaria alternata): 90 to 100%
pest or weed control at 500 ppm (Botrytis cinerea [2]): 90 to 100%
chromatographic logP [1, 6]: 4.46
inhibition at 20 ppm [3]: 90 to 100%
pest or weed control at 500 ppm (Alternaria brassicae): 90 to 100%
inhibition at 20 ppm (Botrytis cinerea [4]): 90 to 100%

O=C(c1c(Oc2cccc(C(F)(F)F)c2)nnc2ccccc12)N(O)CCc1ccc(Cl)cc1 [I-167]
pest or weed control at 500 ppm [5]: 80 to 89%
pest or weed control at 500 ppm (Botrytis cinerea [2]): 70 to 79%
chromatographic logP [1, 6]: 3.84
inhibition at 20 ppm [3]: 80 to 89%
inhibition at 20 ppm (Pyrenophora teres): 90 to 100%
pest or weed control at 500 ppm (Alternaria brassicae): 90 to 100%
inhibition at 20 ppm (Botrytis cinerea [4]): 90 to 100%

Cc1cc(C(F)F)ccc1[C@@H](F)CNC(=O)c1c(Oc2cccc(C(F)(F)F)c2)cnc2ccccc12 (racemic) [I-057]
pest or weed control at 500 ppm (Sphaerotheca fuliginea): 90 to 100%
inhibition at 20 ppm (Alternaria alternata): 90 to 100%
pest or weed control at 500 ppm (Botrytis cinerea [2]): 90 to 100%
chromatographic logP [1, 6]: 4.08
inhibition at 20 ppm [3]: 90 to 100%
pest or weed control at 500 ppm (Alternaria brassicae): 90 to 100%
inhibition at 20 ppm (Botrytis cinerea [4]): 90 to 100%

O=C(NCC(F)(F)c1ccc(Cl)cc1)c1c(Oc2cccc(C(F)(F)F)c2)nnc2ccccc12 [I-023]
pest or weed control at 500 ppm (Sphaerotheca fuliginea): 90 to 100%
inhibition at 20 ppm (Alternaria alternata): 90 to 100%
pest or weed control at 500 ppm (Botrytis cinerea [2]): 90 to 100%
chromatographic logP [1, 6]: 4.13
inhibition at 20 ppm [3]: 90 to 100%
pest or weed control at 500 ppm (Alternaria brassicae): 90 to 100%
